Data taken from patent publication US20080318993A1 (Endo Pharmaceuticals, Inc., priority 2007, published 2008).
“And” between values parts separate entries of the source, which are not always exact repeats. Equal values may be shown once. Read-outs that look alike come from different tables or passages of the source.

Legend:
[1] = Example 5: plasma pharmacokinetics of EN3202 20 mg in hepatic impairment vs healthy controls; conditions: for AUC / AUC(0-t) / Cmax / Tmax / half-life: human, plasma, oral, 20 mg; for AUC(0-t): AUCT; for Tmax: median (range); for increase in average AUC relative to controls: arithmetic means; for AUC increase relative to healthy controls / Cmax increase relative to healthy controls: log-transformed comparison
Description: (§1) While in the clinic, the subjects were to refrain from strenuous physical activity.
All study medications were supplied by the sponsor. […] A single 20 mg dose EN3202 was administered following an overnight fast (from approximately 22:00 on the evening prior to dose administration) at approximately 08:00, and participants were not allowed to eat until at least four hours after the dose.
All doses were administered with 240 mL of ambient water. Participants were instructed to drink all of the water.
Pharmacokinetic parameters were calculated using model-independent methods.
All pharmacokinetic results are summarized using appropriate descriptive statistics. […] One-way ANOVA was conducted using the model PKVAR=group, where group was mild hepatic impairment, moderate-severe hepatic impairment, or healthy control. Point estimates of the impaired versus control group differences and the corresponding 90% confidence limits were constructed.

[2] = Example 5: urinary excretion of oxymorphone and metabolites in hepatic impairment vs healthy controls; conditions: for mean amount excreted in the urine: percent of administered dose, through 120 hours
From the text: as §1

[3] = 10 mg oral dose, cited from earlier work
[4] = orally administered (oral solution), hydrochloride, cited from earlier work
[5] = Moderate-Severe Impairment, mean (SD)
[6] = Subject 006 (Child-Pugh Class B)
[7] = Subject 007 (Child-Pugh Class A)
[8] = Subject 009 (Child-Pugh Class B)
[9] = Subject 010 (Child-Pugh Class B)
[10] = Subject 011 (Child-Pugh Class C)
[11] = moderate-severe hepatic impairment

## CN1CC[C@]23c4c5ccc(O)c4O[C@H]2C(=O)CC[C@@]3(O)[C@H]1C5.Cl [Oxymorphone, 14-hydroxydihydromorphinone hydrochloride]
[1]; Healthy Controls, mean (SD)
  λz: 0.0970 (0.0540) hr^−1
  AUC(0-t): 18 ng·h/mL
  Cmax: 1.73 ng/mL
[1]; Healthy Controls, mean (SD), hydrochloride
  CL/F: 21.15 (13.54) L/min
[1]; Healthy Controls, mean (SD), listed as oxymorphone, hydrochloride
  CL/F: 21.15 L/min
[1]; Mild Impairment, mean (SD)
  CL/F: 13.30 (5.81) L/min
  λz: 0.0830 (0.0392) hr^−1
  AUC(0-t): 30 ng·h/mL
  Cmax: 3.98 ng/mL
[1]; [5]
  CL/F: 7.17 (5.08) L/min
  λz: 0.0970 (0.0365) hr^−1
  AUC(0-t): 104 ng·h/mL
  Cmax: 9.16 ng/mL
[1]; [6]
  CL/F: 7.34 L/min
  Cmax: 4.31 ng/mL
[1]; [7]
  CL/F: 4.45 L/min
  Cmax: 11.4 ng/mL
[1]; [8]
  CL/F: 1.38 L/min
  Cmax: 19.6 ng/mL
[1]; [9]
  CL/F: 7.63 L/min
  Cmax: 3.72 ng/mL
[1]; [10]
  CL/F: 1.33 L/min
  Cmax: 23.6 ng/mL
[1]; AUC, Healthy Controls, mean (SD), single 20 mg EN3202, fasting
  AUC: 20.6 ng·h/mL
[1]; AUC, Mild Impairment, mean (SD), single 20 mg EN3202, fasting
  AUC: 32.1 ng·h/mL
[1]; AUC, Moderate-Severe Impairment, mean (SD), single 20 mg EN3202, fasting
  AUC: 106 ng·h/mL
[1]; AUC, Subject 006 (Child-Pugh Class B)
  AUC: 45.4 ng·h/mL
[1]; AUC, Subject 007 (Child-Pugh Class A)
  AUC: 74.8 ng·h/mL
[1]; AUC, Subject 009 (Child-Pugh Class B)
  AUC: 241 ng·h/mL
[1]; AUC, Subject 010 (Child-Pugh Class B)
  AUC: 43.7 ng·h/mL
[1]; AUC, Subject 011 (Child-Pugh Class C)
  AUC: 250 ng·h/mL
[1]; range among subjects, control group
  Cmax: 0.64 to 2.83 ng/mL
[1]; range among subjects, mild impairment
  Cmax: 0.86 to 11.4 ng/mL
[1]; range among subjects, moderate-severe impairment
  Cmax: 1.66 to 23.6 ng/mL
[1]; Individual AUC results, range, healthy controls
  AUC: 6.18 to 33.9 ng·h/mL
[1]; Individual AUC results, range, subjects with mild impairment
  AUC: 15.3 to 74.8 ng·h/mL
[1]; Individual AUC results, range, subjects with moderate-severe impairment
  AUC: 24.9 to 250 ng·h/mL
[1]; Healthy Controls
  Tmax: 3.5 h
[1]; Mild Impairment
  Tmax: 1.75 h
[1]; Moderate-Severe Impairment
  Tmax: 1.5 h
[1]; T½, Healthy Controls, mean (SD)
  half-life: 9.98 h
[1]; T½, Mild Impairment, mean (SD)
  half-life: 11.8 h
[1]; T½, Moderate-Severe Impairment, mean (SD)
  half-life: 8.04 h
[1]; mean AUC after excluding Subject 007, mild group
  AUC: 23.6 ng·h/mL
[1]; median AUC, control group
  AUC: 23.8 ng·h/mL
[1]; median AUC, mildly-impaired group
  AUC: 24.7 ng·h/mL
[1]; plasma elimination half-life, Subject 009
  half-life: 6.96 h
[1]; plasma elimination half-life, Subject 011
  half-life: 10.7 h
[1]; mild hepatic impairment
  increase in average AUC relative to controls: approximately 1.56 fold
  AUC increase relative to healthy controls: 1.52 fold
[1]; mild impairment
  elimination rate constant ratio, 90% confidence limits: 0.58-1.31
  elimination rate constant, ratio to healthy controls: 0.87
  Cmax increase relative to healthy controls: 1.68 fold
[1]; moderate-severe impairment
  elimination rate constant ratio, 90% confidence limits: 0.74-1.66
  elimination rate constant, ratio to healthy controls: 1.11
  increase in average AUC relative to controls: 5.13 fold
  Cmax increase relative to healthy controls: 3.41 fold
[1]; moderate-to-severe hepatic impairment, hydrochloride
  AUC increase relative to healthy controls: 3.61 fold and 3,6 fold
[1]; two of six subjects with moderate or severe liver disease
  AUC increase in individual subjects: up to 10 fold
[2]; after single 20 mg dose
  urinary excretion essentially complete by: by the end of the 48 to 72 hour collection interval
[2]; control group
  mean amount excreted in the urine: 0.5%
[2]; discussion statement
  administered dose excreted unchanged in the urine: Less than 1%
[2]; mild hepatic impairment
  mean amount excreted in the urine: 1.2%
[2]; [11]
  increase in the amount excreted in the urine: approximately 8 fold
  mean amount excreted in the urine: 4.1%
[3]
  recovery in the first 24 hours, of the amount recovered: 82%
  recovery in the first 24 hours, of the dose: ~42%
  unchanged oxymorphone recovered in the urine: 1.9%
[3]; 120-hour collection interval, 10 healthy subjects, average
  administered dose recovered in the urine: 49%
[3]; urine
  Conjugated oxymorphone, average of the administered dose: 44.1%
[4]
  oral / average absolute bioavailability: about 10%
[4]; listed as oxymorphone
  oral / average absolute bioavailability: approximately 10%
